Data reported in patent publication US6429287B1, “Isolated molecules which complex with HLA-Cw*16 molecules, and uses thereof” (Ludwig Institute for Cancer Research, priority 1996, dated 2002).
Ends that are not written are not given here.

How the values were obtained:
[1] = tested on: HLA-Cw*1601 positive lymphoblastoid cell line, i.e., LB678-EBV; assay: 51Cr release assay: peptide-stimulated lysis by CTLs; type: cell-based, human; settings: for ability of the peptide to stimulate lysis by CTLs: 51Cr labelled LB678-EBV target cells, peptide 15 minutes at room temperature, CTLs added, 51Cr release after four hours at 37° C.
Method: Based upon this hypothesis, a series of peptides were constructed, and lyophilized prior to testing. The lyophilized peptides were dissolved in 1 volume of DMSO, then 9 volumes of H2O, plus 10 mM of acetic acid. The thus diluted peptides were stored at −20° C.
The ability of the peptides to stimulate lysis by CTLs was tested via the ^51Cr release method of Boon et al., J. Exp. Med. 152: 1184-1193 (1980). Specifically, an HLA-Cw*1601 positive lymphoblastoid cell line, i.e., LB678-EBV was ^51Cr labelled for one hour at 37° C., and washed extensively. Then 1000 of these target cells were incubated in 96 well microplates, in the presence of various concentrations of peptide, for 15 minutes, at room temperature. CTLs were then added, and ^51Cr release was measured after four hours, at 37° C.

HLA-Cw*1601 = HLA-Cw*1601 (Homo sapiens, UniProt P10321, /M331V/P208H/P217L/Q277E/Q291P/R121W/S123Y/S297R/S48A/T329A/T363A/V319A); settings: disclosed in earlier applications Ser. No. 08/79,110 and 08/196,630; cited from earlier work

Substance	ability of the peptide to stimulate lysis by CTLs [1]	other results
amino acids 3-10 of SEQ ID NO: 5: peptide consisting of amino acids 3-10 of SEQ ID NO: 5 (SGGPRISY)	neither one stimulated lysis	
AARAVFLAL [SEQ ID NO: 1, preferred BAGE-derived nonapeptide of earlier applications]		complexes with HLA-Cw*1601 and stimulates CTL 82/82 (HLA-Cw*1601): stimulating the cell line CTL 82/82
amino acids 2-10 of SEQ ID NO: 5: nonamer consisting of amino acids 2-10 of SEQ ID NO: 5 (ISGGPRISY)		EC50 ([1]; 51Cr release, LB678-EBV target cells, CTLs, four hours at 37° C., FIG. 3, read-out: peptide concentration achieving half maximal lysis): 30 nM
amino acids 1-9 of SEQ ID NO: 5: peptide consisting of amino acids 1-9 of SEQ ID NO: 5 (KISGGPRIS)	neither one stimulated lysis	
KISGGPRISYPL [SEQ ID NO: 5, corresponds to amino acids 126-137 of MAGE-6]	Lysis first occurred	
